Results: PMC7864055, “Biochemical and biophysical analyses of hypoxia sensing prolyl hydroxylases from Dictyostelium discoideum and Toxoplasma gondii” (The Journal of Biological Chemistry, 2021)

Experiments:
TgPhyA [1] = target: T1, TgPhyA (Toxoplasma gondii, UniProt A0A7J6K353); assay: differential scanning fluorimetry, SYPRO Orange; format: binding; conditions: with metal (Ni(II)); 25-80 °C
T1 construct: gene TGRH88_076950; full-length, recombinant; purification in Supporting information
T1 sequence (A0A7J6K353 1-271): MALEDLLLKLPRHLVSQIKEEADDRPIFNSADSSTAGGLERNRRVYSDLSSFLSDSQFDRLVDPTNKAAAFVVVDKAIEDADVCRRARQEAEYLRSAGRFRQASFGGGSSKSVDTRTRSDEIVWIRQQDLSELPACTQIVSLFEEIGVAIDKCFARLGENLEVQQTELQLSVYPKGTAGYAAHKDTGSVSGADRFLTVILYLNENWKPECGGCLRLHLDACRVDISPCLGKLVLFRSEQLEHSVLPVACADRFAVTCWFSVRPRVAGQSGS

DdPhyA = target: T2, DdPhyA (Dictyostelium discoideum, UniProt Q86KR9); assay: differential scanning fluorimetry, SYPRO Orange; format: binding; conditions: with metal (Ni(II)); 25-80 °C; construct (full-length or truncated) not told in main text
T2 construct: gene phyA; full-length aa 1-284, E. coli BL21 Gold (DE3), N-terminal His6-ZBasic tag cleaved by TEV, EDTA-treated to remove metal
T2 sequence (Q86KR9 whole entry, the tested form may be a part): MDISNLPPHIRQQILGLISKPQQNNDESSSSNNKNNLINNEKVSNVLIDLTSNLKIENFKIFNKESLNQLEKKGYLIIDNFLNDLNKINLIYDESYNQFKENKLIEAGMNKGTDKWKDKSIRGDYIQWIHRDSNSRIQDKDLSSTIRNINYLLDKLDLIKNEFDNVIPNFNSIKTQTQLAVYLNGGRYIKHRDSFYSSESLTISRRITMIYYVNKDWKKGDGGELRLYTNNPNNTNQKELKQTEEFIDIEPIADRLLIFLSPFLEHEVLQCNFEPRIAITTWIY

DdPhyA(60-284) = target: T3, DdPhyA(60-284) (Dictyostelium discoideum, UniProt Q86KR9); assay: X-ray crystallography, […] Å; format: binding; conditions: Ni(II) in place of Fe(II); active site, bidentate to metal, no Skp1 substrate
T3 construct: gene phyA; catalytic domain residues 60-284 (once printed 60-286), E. coli, His6-ZBasic tag cleaved; 3 molecules per asymmetric unit; Ni(II) substituting for Fe(II)
T3 sequence (Q86KR9 60-284): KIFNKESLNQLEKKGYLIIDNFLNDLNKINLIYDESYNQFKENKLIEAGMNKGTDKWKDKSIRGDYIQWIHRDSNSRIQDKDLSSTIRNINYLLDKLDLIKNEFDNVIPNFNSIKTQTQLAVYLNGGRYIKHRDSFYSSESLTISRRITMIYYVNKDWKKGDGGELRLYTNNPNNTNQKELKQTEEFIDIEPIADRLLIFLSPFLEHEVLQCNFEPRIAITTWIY
Source text: The C-5 carboxylate of NOG is bound

TgPhyA [2] = target: T1, TgPhyA; assay: 1H NMR of 2OG conversion to succinate; format: biochemical; conditions: uncoupled (no Skp1); enzyme 20 μM, 2OG 500 μM, Fe(II) 50 μM, ascorbate 1 mM, Tris-D11 pH 7.5, room temperature

Row | Structure (SMILES) | Tm shift (TgPhyA [1]) | Tm shift (DdPhyA) | X-ray crystallography, 2.02 Å (DdPhyA(60-284)) | 2OG turnover (TgPhyA [2])
1 | O=C(O)CNC(=O)C(=O)O [NOG] | Ni(II) ions and N-oxalylglycine (a stable 2OG analog, Fig. S9) stabilize the enzymes | Ni(II) ions and N-oxalylglycine (a stable 2OG analog, Fig. S9) stabilize the enzymes | the latter in a bidentate manner. The C-5 carboxylate of NOG is bound | 
2 | O=C(O)CCC(=O)C(=O)O [2OG] |  |  |  | TgPhyA exhibited substantial uncoupled 2OG turnover in the absence of substrate
